In patent US20110034714A1, “METAL COMPLEX COMPOUND, CANCER THERAPEUTIC AGENT COMPOSITION CONTAINING THE METAL COMPLEX COMPOUND AS AN ACTIVE INGREDIENT, AND INTERMEDIATE FOR THE METAL COMPLEX COMPOUND” (priority 2007, published 2011):

Experiments:
Type in all cases: in vivo
human tumor Lu-24 = assay: Anti-tumor action in nude mice transplanted with human tumor Lu-24; details: Lu-24 tumor-bearing nude mice, 10.0 mg and 12.0 mg/kg, tail vein, 3 times at 4 days' intervals
Procedure: (§1) Using nude mice transplanted with human tumors SC-6-JCK and Lu-24, the anti-tumor action of the substance having the structure below (Compound 44), among the compounds of the present invention, was investigated. Each of SC-6-JCK and Lu-24 was subcutaneously implanted in nude mice, and, when the tumor volumes reached to 100 to 300 mm^3, 7.0 mg and 10.0 mg/kg of the present test substance were respectively administered to the SC-6-JCK tumor-bearing mice, and 10.0 mg and 12.0 mg/kg of the present test substance were respectively administered to the Lu-24 tumor-bearing mice, from the tail vein 3 times intermittently at 4 days' intervals.

[1] = BUN (blood urea nitrogen) as an index of nephrotoxicity in tumor-bearing nude mice; details: 4 days after completion of the administration; SC-6-JCK and Lu-24 tumor-bearing nude mice
Procedure: as §1

human tumor SC-6-JCK = assay: Anti-tumor action in nude mice transplanted with human tumor SC-6-JCK; details: SC-6-JCK tumor-bearing nude mice, 7.0 mg and 10.0 mg/kg, tail vein, 3 times at 4 days' intervals
Procedure: as §1

SMILES: CCOP1(=O)CP(=O)(OCC)[O][Pt]([NH2])([NH2])[O]1 (stereo not drawn) [Compound 44]
- suppression of the tumor volume (human tumor Lu-24): suppression of the tumor volume was observed in a dose-dependent manner
- BUN (blood urea nitrogen) as an index of nephrotoxicity [1]: an increase of the BUN value was not observed
- suppression of the tumor volume (human tumor SC-6-JCK): suppression of the tumor volume was observed in a dose-dependent manner
